pIC50: −log10 of the molar value.
Assays:
Format in all cases: cell-based
MCF-7 cells = assay: Breast Cancer Cell Viability Assay (MCF7 Viability Assay, CellTiter-Glo); details: 5 days' compound exposure; for pIC50: Homo sapiens, MCF7, 120 h
Protocol: MCF-7 cells were adjusted to a concentration of 20,000 cells per mL in RPMI containing 10% FBS and 20 mM HEPES. 16 microliters of the cell suspension (320 cells) was added to each well of a 384 well plate, and the cells were incubated overnight to allow the cells to adhere. The following day an eleven point, serial semilog dilution of each compound was added to the cells in 16 μL at a final concentration ranging from 0.3-0.000003 μM. After 5 days' compound exposure, 16 μL of CellTiter-GLo (Promega, Madison Wis.) was added to the cells the relative luminescence units (RLUs) of each well was determined. CellTiter-Glo added to 32 μL of medium without cells was used to obtain a background value. The Percent viability of each sample was determined as follows: (RLU sample-RLU background/RLU untreated cells-RLU background)×100=% viability.

ER-α [1] = biological target: T1, ER-α (Homo sapiens, UniProt P03372); assay: ER-α in Cell Western Assay (ER1D5); details: MCF-7 cells, ER1D5 antibody, 4 or 24 hr post compound addition, read-out: ER In-Cell Western Assay (ER1D5); for Emax: MCF7, Max Response; for DC50: IC50
T1 construct: endogenous in cells; host or cells: MCF-7
T1 sequence (P03372 1-595): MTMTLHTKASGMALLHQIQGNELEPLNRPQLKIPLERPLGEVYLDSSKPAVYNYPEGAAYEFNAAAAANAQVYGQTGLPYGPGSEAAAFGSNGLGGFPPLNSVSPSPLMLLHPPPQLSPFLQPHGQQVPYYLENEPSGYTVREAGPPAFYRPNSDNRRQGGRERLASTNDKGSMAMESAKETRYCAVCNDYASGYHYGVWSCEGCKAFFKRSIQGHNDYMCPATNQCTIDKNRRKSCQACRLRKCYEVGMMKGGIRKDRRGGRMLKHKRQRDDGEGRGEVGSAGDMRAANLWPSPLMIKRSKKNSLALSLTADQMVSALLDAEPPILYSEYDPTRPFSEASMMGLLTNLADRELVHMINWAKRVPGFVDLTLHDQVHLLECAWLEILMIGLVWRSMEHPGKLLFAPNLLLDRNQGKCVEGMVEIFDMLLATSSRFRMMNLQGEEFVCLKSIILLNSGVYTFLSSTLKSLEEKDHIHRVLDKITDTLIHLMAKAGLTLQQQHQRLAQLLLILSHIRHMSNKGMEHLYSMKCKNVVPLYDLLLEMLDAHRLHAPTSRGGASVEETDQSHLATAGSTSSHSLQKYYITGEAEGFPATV
Protocol: (§1) MCF-7 cells were adjusted to a concentration of 200,000 cells per mL in RPMI containing 10% charcoal-stripped FBS and 20 mM HEPES. 16 microliters of the cell suspension (3200 cells) was added to each well of a poly-D-lysine 384 well plate, and the cells were incubated overnight to allow the cells to adhere. The following day an eleven point, serial semilog dilution of each compound was added to the cells in 16 μL at a final concentration ranging from 0.3-0.000003 μM. At 4 or 24 hr post compound addition, the cells were fixed (10% formalin in PBS) for 20 minutes. Cells were permeabalized in PBS 0.1% Triton and blocked with LICOR blocking buffer (50 μl/well, 90′). The wells were then incubated overnight at 4° C. with ER1D5 (Santa Cruz Biotechnology) diluted 1:100 in LICOR blocking buffer/0.1% Tween-20. Wells which were treated with blocking buffer with Tween but no antibody were used as a background control. Wells were washed with 0.1% Tween-20/PBS and then incubated in goat anti-mouse IRDye™ 800CW (LICOR Inc.; 1:1000) and DRAQ5 DNA dye (1:2000 for 2 mM stock) diluted in LICOR blocking buffer containing 0.1% Tween-20 and 0.01% SDS for 60 minutes. Cells were washed (50 μl/well, 5′ each) in 0.1% Tween-20/PBS. Plates were scanned on a LICOR Odyssey infrared imaging system. Integrated intensities in the 800 nm channel and 700 nm channel were measured to determine levels of ER and DNA respectively. Percent ER levels were determined as follows: (Integrated intensity 800 nm sample/integrated intensity 700 nm sample)/(Integrated intensity 800 nm untreated cells/integrated intensity 700 nm untreated cells)×100=% ER levels.

ER-α [2] = biological target: T1, ER-α; assay: ER-α in Cell Western Assay (SP1); details: MCF-7 cells, SP1 rabbit monoclonal Ab, 4 or 24 hr post compound addition, read-out: ER In-Cell Western Assay (SP1); for Emax: MCF7, Max Response; for DC50: IC50
Protocol: as §1, with “with SP1 rabbit monoclonal Ab (Thermo Scientific)” for “with ER1D5 (Santa Cruz Biotechnology)”, “diluted 1:1000” for “diluted 1:100”, “goat anti-rabbit” for “goat anti-mouse”

Row | pIC50 (MCF-7 cells) | Emax (ER-α [1]) [%] | DC50 (ER-α [1]) [nM] | Emax (ER-α [2]) [%] | DC50 (ER-α [2]) [nM] | SMILES | MCF7 Viability Assay Max Response (MCF-7 cells)
1 | ≥ 9.00 | ≥ 65 | ≤ 1 | ≥ 85 | ≤ 1 | C[C@@H]1CCN([C@@H](C)COc2ccc(C3c4ccc(O)cc4CC3c3ccccc3)cc2)C1 (stereo partly drawn) [Example 4, 1-(4-((S)-2-((R)-3-Methylpyrrolidin-1-yl)propoxy)phenyl)-2-phenyl-2,3-dihydro-1H-inden-5-ol] | ++ (++ = a single % value ≧50%)
2 | ≥ 9.00 |  |  | ≥ 85 | ≤ 1 | C[C@@H]1CCN([C@@H](C)COc2ccc(C3c4ccc(O)c(F)c4CC3c3ccc(O)cc3)cc2)C1 (stereo partly drawn) [Example 5, 4-Fluoro-2-(4-hydroxyphenyl)-1-(4-((S)-2-((R)-3-methylpyrrolidin-1-yl)propoxy)phenyl)-2,3-dihydro-1H-inden-5-ol] | ++ (++ = a single % value ≧50%)
3 | ≥ 9.00 | ≥ 65 | ≤ 1 | ≥ 85 | ≤ 1 | C[C@@H]1CCN([C@@H](C)COc2ccc(C3c4ccc(O)cc4CC3c3cccc(O)c3)cc2)C1 (stereo partly drawn) [Example 3, 2-(3-Hydroxyphenyl)-1-(4-((S)-2-((R)-3-methylpyrrolidin-1-yl)propoxy)phenyl)-2,3-dihydro-1H-inden-5-ol] | ++ (++ = a single % value ≧50%)
4 | ≥ 9.00 | 40 to 65 | ≤ 1 | 60 to 85 | ≤ 1 | Oc1ccc(C2Cc3cc(O)ccc3C2c2ccc(OCCN3CCCC3)cc2)cc1 (stereo not drawn) [Example 1, 2-(4-Hydroxyphenyl)-1-(4-(2-(pyrrolidin-1-yl)ethoxy)phenyl)-2,3-dihydro-1H-inden-5-ol] | ++ (++ = a single % value ≧50%)
5 | ≥ 9.00 | ≥ 65 | ≤ 1 | ≥ 85 | ≤ 1 | C[C@@H]1CCN([C@@H](C)COc2ccc(C3c4ccc(O)cc4CC3c3ccc(O)cc3)cc2)C1 (stereo partly drawn) [Example 2, 2-(4-Hydroxyphenyl)-1-(4-((S)-2-((R)-3-methylpyrrolidin-1-yl)propoxy)phenyl)-2,3-dihydro-1H-inden-5-ol] | ++ (++ = a single % value ≧50%)
6 | < 9.00 |  |  | ≥ 85 | ≤ 1 | C[C@@H]1CCN([C@@H](C)COc2ccc(C3c4ccc(O)cc4CC3c3ccc(F)cc3)cc2)C1 (stereo partly drawn) [Example 6, 2-(4-Fluorophenyl)-1-(4-((S)-2-((R)-3-methylpyrrolidin-1-yl)propoxy)phenyl)-2,3-dihydro-1H-inden-5-ol] | ++ (++ = a single % value ≧50%)
7 | < 9.00 |  |  | 60 to 85 | ≤ 1 | Oc1ccc2c(c1)CC(c1ccccc1)C2c1ccc(OCCN2CCCC2)cc1 (stereo not drawn) [Example 7, 2-Phenyl-1-(4-(2-(pyrrolidin-1-yl)ethoxy)phenyl)-2,3-dihydro-1H-inden-5-ol] | ++ (++ = a single % value ≧50%)
